Experimental data published in patent publication US6544985B2, “Dihydro-benzo [b][1,4]diazepin-2-one derivatives” (Hoffman-La Roche Inc., priority 2001, dated 2003).

Compared with `CCCN(C)c1cc2c(cc1Cl)NC(=O)CC(c1cccc(-c3nc(CO)cs3)c1)=N2` [Example 184, 8-Chloro-4-[3-(4-hydroxymethyl-thiazol-2-yl)-phenyl]-7-(methyl-propyl-amino)-1,3-dihydro-benzo[b][1,4]diazepin-2-one], `CCCN(C)c1cc2c(cc1C)NC(=O)CC(c1cccc(-c3nc(CO)cs3)c1)=N2` [Example 199, 4-[3-(4-Hydroxymethyl-thiazol-2-yl)-phenyl]-8-methyl-7-(methyl-propyl-amino)-1,3-dihydro-benzo[b][1,4]diazepin-2-one] is higher in melting point: 211 to 213 °C for the first, 222 to 224 °C for the second.

First: CC(C)N(C)c1cc2c(cc1Cl)NC(=O)CC(c1cccc(-c3nc(CO)cs3)c1)=N2 [Example 185, 8-Chloro-4-[3-(4-hydroxymethyl-thiazol-2-yl)-phenyl]-7-(isopropyl-methyl-amino)-1,3-dihydro-benzo[b][1,4]diazepin-2-one]
Second: CC(C)N(C)c1cc2c(cc1Cl)NC(=O)CC(c1cccc(-c3nc(CO)co3)c1)=N2 [Example 189, 8-Chloro-4-[3-(4-hydroxymethyl-oxazol-2-yl)-phenyl]-7-(isopropyl-methyl-amino)-1,3-dihydro-benzo[b][1,4]diazepin-2-one]
The melting point of the first is higher: 193 to 195 °C for the first, 143 to 145 °C for the second.

First: CCN(C)c1cc2c(cc1Cl)NC(=O)CC(c1cccc(-c3nc(CO)co3)c1)=N2 [Example 187, 8-Chloro-7-(ethyl-methyl-amino)-4-[3-(4-hydroxymethyl-oxazol-2-yl)-phenyl]-1,3-dihydro-benzo[b][1,4]diazepin-2-one]
Second: CCCN(C)c1cc2c(cc1Cl)NC(=O)CC(c1cccc(-c3nc(CO)co3)c1)=N2 [Example 188, 8-Chloro-4-[3-(4-hydroxymethyl-oxazol-2-yl)-phenyl]-7-(methyl-propyl-amino)-1,3-dihydro-benzo[b][1,4]diazepin-2-one]
The melting point of the first is lower: 165 to 166 °C for the first, 166 to 167 °C for the second.

First: CC(C)CN(C)c1cc2c(cc1Cl)NC(=O)CC(c1cccc(-c3nc(CO)co3)c1)=N2 [Example 190, 8-Chloro-4-[3-(4-hydroxymethyl-oxazol-2-yl)-phenyl]-7-(isobutyl-methyl-amino)-1,3-dihydro-benzo[b][1,4]diazepin-2-one]
Second: CCCN(C)c1cc2c(cc1C)NC(=O)CC(c1cccc(-c3nc(CO)co3)c1)=N2 [Example 200, 4-[3-(4-Hydroxymethyl-oxazol-2-yl)-phenyl]-8-methyl-7-(methyl-propyl-amino)-1,3-dihydro-benzo[b][1,4]diazepin-2-one]
The melting point of the first is lower: 166 to 167 °C for the first, 200 to 202 °C for the second.

Compared with `CNCc1csc(-c2cccc(C3=Nc4cc(N(C)C)c(Cl)cc4NC(=O)C3)c2)n1` [Example 191, 8-Chloro-7-dimethylamino-4-[3-(4-methylaminomethyl-thiazol-2-yl)-phenyl]-1,3-dihydro-benzo[b][1,4]diazepin-2-one], `CN(C)c1cc2c(cc1Cl)NC(=O)CC(c1cccc(-c3nc(CN4CCOCC4)cs3)c1)=N2` [Example 192, 8-Chloro-7-dimethylamino-4-[3-(4-morpholin-4-ylmethyl-thiazol-2-yl)-phenyl]-1,3-dihydro-benzo[b][1,4]diazepin-2-one] is higher in melting point: 129 to 130 °C for the first, 138 to 143 °C for the second.

First: CN(C)c1cc2c(cc1Cl)NC(=O)CC(c1cccc(-c3csc(CO)n3)c1)=N2 [Example 193, 8-Chloro-7-dimethylamino-4-[3-(2-hydroxymethyl-thiazol-4-yl)-phenyl]-1,3-dihydro-benzo[b][1,4]diazepin-2-one]
Second: CN(C)c1cc2c(cc1Cl)NC(=O)CC(c1cccc(-c3csc(N)n3)c1)=N2 [Example 194, 4-[3-(2-Amino-thiazol-4-yl)-phenyl]-8-chloro-7-dimethylamino-1,3-dihydro-benzo[b][1,4]diazepin-2-one]
The melting point of the first is lower: 176 to 178 °C for the first, 247 to 248 °C for the second.

First: CN(C)c1cc2c(cc1Cl)NC(=O)CC(c1cccc(-c3csc(Nc4ccncc4)n3)c1)=N2 [Example 197, 8-Chloro-7-dimethylamino-4-{3-[2-(pyridin-4-ylamino)-thiazol-4-yl]-phenyl}-1,3-dihydro-benzo[b][1,4]diazepin-2-one]
Second: CN(C)c1cc2c(cc1Cl)NC(=O)CC(c1cccc(-c3nnc(CCO)s3)c1)=N2 [Example 223, 8-Chloro-7-dimethylamino-4-{3-[5-(2-hydroxy-ethyl)-[1,3,4]thiadiazol-2-yl]-phenyl}-1,3-dihydro-benzo[b][1,4]diazepin-2-one]
The melting point of the first is higher: 231 to 234 °C for the first, 198 to 200 °C for the second.

Compared with `CCCN(C)c1cc2c(cc1Cl)NC(=O)CC(c1cccc(-c3coc(C)n3)c1)=N2` [Example 198, 8-Chloro-4-[3-(2-methyl-oxazol-4-yl)-phenyl]-7-(methyl-propyl-amino)-1,3-dihydro-benzo[b][1,4]diazepin-2-one], `Cc1nc(-c2cccc(C3=Nc4cc(N(C)C)c(C(F)(F)F)cc4NC(=O)C3)c2)co1` [Example 210, 7-Dimethylamino-4-[3-(2-methyl-oxazol-4-yl)-phenyl]-8-trifluoromethyl-1,3-dihydro-benzo[b][1,4]diazepin-2-one] is higher in melting point: 163 to 164 °C for the first, 192 to 193 °C for the second.

First: CN(C)c1cc2c(cc1C(F)(F)F)NC(=O)CC(c1cccc(-c3nc(CO)cs3)c1)=N2 [Example 201, 7-Dimethylamino-4-[3-(4-hydroxymethyl-thiazol-2-yl)-phenyl]-8-trifluoromethyl-1,3-dihydro-benzo[b][1,4]diazepin-2-one]
Second: CCCN(C)c1cc2c(cc1C(F)(F)F)NC(=O)CC(c1cccc(-c3nc(CO)cs3)c1)=N2 [Example 203, 4-[3-(4-Hydroxymethyl-thiazol-2-yl)-phenyl]-7-(methyl-propyl-amino)-8-trifluoromethyl-1,3-dihydro-benzo[b][1,4]diazepin-2-one]
The melting point of the first is higher: 198 to 199 °C for the first, 177 to 180 °C for the second.

First: CN(C)c1cc2c(cc1C(F)(F)F)NC(=O)CC(c1cccc(-c3nc(CO)co3)c1)=N2 [Example 202, 7-Dimethylamino-4-[3-(4-hydroxymethyl-oxazol-2-yl)-phenyl]-8-trifluoromethyl-1,3-dihydro-benzo[b][1,4]diazepin-2-one]
Second: Cc1nc(-c2cccc(C3=Nc4cc(N(C)C)c(C(F)(F)F)cc4NC(=O)C3)c2)c(CO)s1 [Example 218, 7-Dimethylamino-4-[3-(5-hydroxymethyl-2-methyl-thiazol-4-yl)-phenyl]-8-trifluoromethyl-1,3-dihydro-benzo[b][1,4]diazepin-2-one]
The melting point of the first is lower: 197 to 198 °C for the first, 226 to 227 °C for the second.

Compared with `CN(C)c1cc2c(cc1C(F)(F)F)NC(=O)CC(c1cccc(-c3nnc(CCO)s3)c1)=N2` [Example 205, 7-Dimethylamino-4-{3-[5-(2-hydroxy-ethyl)-[1,3,4]thiadiazol-2-yl]-phenyl}-8-trifluoromethyl-1,3-dihydro-benzo[b][1,4]diazepin-2-one], `Cc1sc(CO)nc1-c1cccc(C2=Nc3cc(N(C)C)c(C(F)(F)F)cc3NC(=O)C2)c1` [Example 216, 7-Dimethylamino-4-[3-(2-hydroxymethyl-5-methyl-thiazol-4-yl)-phenyl]-8-trifluoromethyl-1,3-dihydro-benzo[b][1,4]diazepin-2-one] is lower in melting point: 234 to 237 °C for the first, 190 to 193 °C for the second.

Compared with `CN(C)c1cc2c(cc1C(F)(F)F)NC(=O)CC(c1cccc(-c3cocn3)c1)=N2` [Example 208, 7-Dimethylamino-4-(3-oxazol-4-yl-phenyl)-8-trifluoromethyl-1,3-dihydro-benzo[b][1,4]diazepin-2-one], `Cc1ocnc1-c1cccc(C2=Nc3cc(N(C)C)c(C(F)(F)F)cc3NC(=O)C2)c1` [Example 211, 7-Dimethylamino-4-[3-(5-methyl-oxazol-4-yl)-phenyl]-8-trifluoromethyl-1,3-dihydro-benzo[b][1,4]diazepin-2-one] is higher in melting point: 218 to 219 °C for the first, 238 to 239 °C for the second.

First: Cc1scnc1-c1cccc(C2=Nc3cc(N(C)C)c(C(F)(F)F)cc3NC(=O)C2)c1 [Example 213, 7-Dimethylamino-4-[3-(5-methyl-thiazol-4-yl)-phenyl]-8-trifluoromethyl-1,3-dihydro-benzo[b][1,4]diazepin-2-one]
Second: Cc1nc(-c2cccc(C3=Nc4cc(N(C)C)c(C(F)(F)F)cc4NC(=O)C3)c2)c(C)s1 [Example 214, 7-Dimethylamino-4-[3-(2,5-dimethyl-thiazol-4-yl)-phenyl]-8-trifluoromethyl-1,3-dihydro-benzo[b][1,4]diazepin-2-one]
The melting point of the first is higher: 214 to 215 °C for the first, 208 to 209 °C for the second.

With `CCCc1sc(CO)nc1-c1cccc(C2=Nc3cc(N(C)C)c(C(F)(F)F)cc3NC(=O)C2)c1` [Example 217, 7-Dimethylamino-4-[3-(2-hydroxymethyl-5-propyl-thiazol-4-yl)-phenyl]-8-trifluoromethyl-1,3-dihydro-benzo[b][1,4]diazepin-2-one] the melting point was 112 to 114 °C.

With `CN(C)c1cc2c(cc1Cl)NC(=O)CC(c1cccc(-c3csc(NC(=N)N)n3)c1)=N2` [Example 196, N-{4-[3-(7-Chloro-8-dimethylamino-4-oxo-4,5-dihydro-3H-benzo[b][1,4]diazepin-2-yl)-phenyl]-thiazol-2-yl}-guanidine] the melting point was 221 °C (dec.).
For `CN(C)c1cc2c(cc1C(F)(F)F)NC(=O)CC(c1cccc(-c3nnc(CCO)o3)c1)=N2` [Example 207, 7-Dimethylamino-4-{3-[5-(2-hydroxy-ethyl)-[1,3,4]oxadiazol-2-yl]-phenyl}-8-trifluoromethyl-1,3-dihydro-benzo[b][1,4]diazepin-2-one], the melting point was 237 °C (dec.).
With `CN(C)c1cc2c(cc1C(F)(F)F)NC(=O)CC(c1cccc(-c3cscn3)c1)=N2` [Example 209, 7-Dimethylamino-4-(3-thiazol-4-yl-phenyl)-8-trifluoromethyl-1,3-dihydro-benzo[b][1,4]diazepin-2-one] the melting point was 200 °C (dec.).
In the case of `CC(C)c1nc(-c2cccc(C3=Nc4cc(N(C)C)c(C(F)(F)F)cc4NC(=O)C3)c2)c[nH]1` [Example 221, 7-Dimethylamino-4-[3-(2-isopropyl-1H-imidazol-4-yl)-phenyl]-8-trifluoromethyl-1,3-dihydro-benzo[b][1,4]diazepin-2-one], the melting point is reported as 150 °C (dec.).
